The values that follow come from article PMC2828546, “Screening-based discovery of drug-like O-GlcNAcase inhibitor scaffolds” (Febs Letters, 2010).

What is called inhibition is the percentage by which the read-out fell short of the control. As a reminder, the IC50 is the concentration at which inhibition is half-maximal. Broadly, the Ki is the dissociation constant of the complex between target and ligand, obtained from inhibition or displacement.

Where “and” joins values, the source holds several entries; their conditions need not be identical. Equal entries are not always repeated. Entries after “also recorded” stand apart in the source; their conditions may differ. Where two headings read alike, the source gives them in different places. A value given as a limit tells only on which side of the number the result lay.

The target in test [1] is T1, CpOGA (Clostridium perfringens, UniProt Q0TR53). Nature of the test: biochemical. The note with it: read-out: inhibition of CpOGA in the screen.
T1 sequence (Q0TR53 31-624 limits assumed): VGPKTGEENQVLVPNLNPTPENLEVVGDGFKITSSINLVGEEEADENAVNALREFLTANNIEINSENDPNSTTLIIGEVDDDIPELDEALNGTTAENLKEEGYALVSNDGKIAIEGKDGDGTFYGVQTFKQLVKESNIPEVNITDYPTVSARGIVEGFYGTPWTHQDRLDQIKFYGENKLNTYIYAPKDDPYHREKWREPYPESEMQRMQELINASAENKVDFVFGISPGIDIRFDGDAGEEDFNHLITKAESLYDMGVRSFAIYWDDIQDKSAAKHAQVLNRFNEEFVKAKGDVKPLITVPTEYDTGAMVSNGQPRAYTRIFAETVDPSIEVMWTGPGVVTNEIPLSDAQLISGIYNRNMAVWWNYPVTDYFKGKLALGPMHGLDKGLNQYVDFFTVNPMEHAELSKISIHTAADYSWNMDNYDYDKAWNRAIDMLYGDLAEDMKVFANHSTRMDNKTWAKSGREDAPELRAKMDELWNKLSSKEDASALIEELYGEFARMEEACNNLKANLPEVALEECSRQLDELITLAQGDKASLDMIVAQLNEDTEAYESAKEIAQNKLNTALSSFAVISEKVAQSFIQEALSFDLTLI
The target in test [2] is T2, hOGA (Homo sapiens, UniProt O60502).
T2 construct: made in house
T2 sequence (O60502 1-916): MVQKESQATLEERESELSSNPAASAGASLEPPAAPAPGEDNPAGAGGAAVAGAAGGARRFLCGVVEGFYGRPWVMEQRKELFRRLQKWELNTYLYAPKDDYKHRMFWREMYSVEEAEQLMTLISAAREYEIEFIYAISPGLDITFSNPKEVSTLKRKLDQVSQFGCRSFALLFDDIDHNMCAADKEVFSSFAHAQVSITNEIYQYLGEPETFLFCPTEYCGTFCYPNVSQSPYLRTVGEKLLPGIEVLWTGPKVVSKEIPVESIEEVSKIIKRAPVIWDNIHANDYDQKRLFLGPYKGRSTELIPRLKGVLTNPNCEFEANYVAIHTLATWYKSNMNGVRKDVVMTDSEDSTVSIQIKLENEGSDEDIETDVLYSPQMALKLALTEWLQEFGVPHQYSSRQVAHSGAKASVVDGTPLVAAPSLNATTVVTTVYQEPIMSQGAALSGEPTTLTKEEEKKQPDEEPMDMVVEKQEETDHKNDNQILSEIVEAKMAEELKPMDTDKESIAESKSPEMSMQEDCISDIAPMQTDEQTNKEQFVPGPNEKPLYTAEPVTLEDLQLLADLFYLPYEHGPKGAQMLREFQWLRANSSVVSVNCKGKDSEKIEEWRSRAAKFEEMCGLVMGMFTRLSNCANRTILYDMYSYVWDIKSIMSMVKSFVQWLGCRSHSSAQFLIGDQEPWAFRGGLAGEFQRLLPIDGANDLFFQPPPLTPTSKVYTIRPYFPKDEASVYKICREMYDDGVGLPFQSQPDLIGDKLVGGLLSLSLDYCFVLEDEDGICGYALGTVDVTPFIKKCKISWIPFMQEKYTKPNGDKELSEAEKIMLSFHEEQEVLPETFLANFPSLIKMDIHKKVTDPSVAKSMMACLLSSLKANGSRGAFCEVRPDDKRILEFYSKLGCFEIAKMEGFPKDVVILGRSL
Nature of the test: hOGA inhibition, fluorogenic 4MU-NAG substrate. It is filed as biochemical. The note with it: for IC50: 80 μM 4MU-GlcNAc (Km), 60 min, pH 5.7; for hOGA BEI (Binding Efficiency Index): BEI = -log(Ki)/M, M in kDa, Ki from IC50 by Cheng-Prusoff; for Selectivity (HexA/B/hOGA): ratio of HexA/B to hOGA inhibition constants.

The next test deals with human hexosaminidase A/B. The experiment in a line: HexA/B inhibition, fluorogenic 4MU-NAG substrate. The note with it: 230 μM substrate (Km), 15 min, pH 5.7. The class given is biochemical. As to the method: Further kinetic experiments to determine the mode of inhibition were carried out according to the procedure described previously. […] IC50 measurements with CpOGA, hOGA and a mixture of human hexosaminidase A/B activities (Sigma A6152) against the compounds were performed using the fluorogenic 4MU-NAG substrate and standard reaction mixtures as described previously with some changes [[39,31,40]]. Standard reaction mixtures (50 μl) contained 0.2 nM CpOGA, 2 nM hOGA or 50 μ units unit/ml HexA/B in McIlvaine buffer (0.2 M Na2HPO4 mixed with 0.1 M citric acid to pH 5.7) supplemented with 0.1 mg/ml BSA. […] The reactions were run at room temperature for 7 min (CpOGA), 60 min (hOGA) or 15 min (HexA/B).

Test [3] has as its target T1, CpOGA. The experiment in a line: biochemical.
Test [4] concerns the target T1, CpOGA. It is filed as biochemical.
Test [5] has as its target T2, hOGA. The note with it: cited from earlier work.
For test [6], the target named is T1, CpOGA. The note with it: read-out: CpOGA Ki; cited from earlier work.
The target in test [7] is T1, CpOGA. The note with it: read-out: CpOGA IC50; cited from earlier work.

In the case of `c1ccc(CNc2ncnc3nc[nH]c23)cc1` [6-benzylaminopurine], the inhibition at 30.2 µM at CpOGA [1] is 30%.
As for `CC(=O)Nc1nnc(S(N)(=O)=O)s1` [Acetazolamide, acetazolamide], the IC50 on hOGA [2] (2 nM hOGA, read-out: hOGA IC50) came out at 47 ± 0.1 µM.
Take `O=C1CC2(CCCC2)CC(=O)N1CCCCN1CCN(c2ncccn2)CC1` [Buspirone, buspirone]: the IC50 at hOGA [2] (2 nM hOGA, read-out: hOGA IC50) came to 25 ± 0.1 µM; against human hexosaminidase A/B it was 47 ± 3 µM.
For the compound `Cn1c(=O)c2c(ncn2CC(O)CO)n(C)c1=O` (centres unmarked) [Diprophylline, diprophylline], the IC50 against CpOGA [3] was 60 ± 10 µM; at hOGA [2] (2 nM hOGA, read-out: hOGA IC50), over 100 µM; on human hexosaminidase A/B, 200 ± 30 µM. For the same compound, on CpOGA [4], the “inhibition mode against CpOGA” value is listed as “compete for binding to the same CpOGA active site; also recorded: competitive inhibitor”. Further, the “hOGA BEI (Binding Efficiency Index)” value at hOGA [2] is on record as 16. The “Selectivity (HexA/B/hOGA)” value on hOGA [2] was 1.6.
For `CC(=O)N1CCN(c2ccc(OCC3COC(Cn4ccnc4)(c4ccc(Cl)cc4Cl)O3)cc2)CC1` (centres unmarked) [Ketoconazole, ketoconazole], the “inhibition mode against CpOGA” value against CpOGA [4] is recorded as “compete for binding to the same CpOGA active site”. Further, the IC50 was 4 µM and 4.3 µM at hOGA [2] (2 nM hOGA, read-out: hOGA IC50); 11 ± 1 µM against human hexosaminidase A/B.
On to `CCCC1=N[C@@H]2[C@@H](O)[C@H](O)[C@@H](CO)O[C@@H]2S1` [NButGT], for which the “selectivity for hOGA” value on hOGA [5] (thiazoline derivative, selectivity for hOGA) is listed as 600 fold.
`CNc1ncnc2nc[nH]c12` [N^6-methyladenine]: the IC50 at hOGA [2] (2 nM hOGA, read-out: hOGA IC50) amounted to 4 ± 0.3 µM; against human hexosaminidase A/B, 300 µM.
Take `CC(=O)N[C@H]1/C(=N/OC(=O)Nc2ccccc2)O[C@H](CO)[C@@H](O)[C@@H]1O` [PUGNAc]: the inhibition constant Ki on CpOGA [6] is 0.005 µM.
Consider `CC1CCC(NC(=O)N(CCCl)N=O)CC1` (centres unmarked) [Semustine, semustine], for which the “inhibition mode against CpOGA” value against CpOGA [4] is “compete for binding to the same CpOGA active site”. Besides, the “hOGA BEI (Binding Efficiency Index)” value on hOGA [2] is recorded as 16. In addition, the IC50 is over 100 µM against hOGA [2] (hOGA IC50, 2 nM hOGA) and 2500 µM against human hexosaminidase A/B. Besides, at hOGA [2], the “Selectivity (HexA/B/hOGA)” value is 9.
Regarding `CN(N=O)C(=O)N[C@H]1C(O)O[C@H](CO)[C@@H](O)[C@@H]1O` (some centres unmarked) [Streptozotocin, streptozotocin], at hOGA [2], the “hOGA BEI (Binding Efficiency Index)” value is reported as 11 and the “Selectivity (HexA/B/hOGA)” value stood at 30. Further, on CpOGA [7], the IC50 is 30 µM. The Ki at hOGA [5] (Ki value from literature, read-out: hOGA Ki (printed in hOGA IC50 column)) was 1500 µM.
